US20010046968A1, “Opioid growth factor modulates angiogenesis” (priority 2000, published 2001)
Entries after “also recorded” stand apart in the source; their conditions may differ.

Legend:
[1] = tested on: CAM blood vessels (angiogenesis); test: Chorioallantoic membrane (CAM) model, drug-impregnated methylcellulose disk, image analysis of blood vessels (Example 1); type: in vivo, chicken; conditions: for effect on angiogenesis / blood vessel growth vs control: 5 μg each per disk; for Blood Vessel Mean Length / Blood Vessel Number / Blood Vessel Length: 48 hours, mean ± SEM; for Blood Vessel Length: total length
Method: (§1) The CAM model utilized in these studies has been described by Mazo et al. (FASEB J. 13: A527, 1999). In brief, fertilized white broiler chicken eggs were obtained from a local hatchery and kept at room temperature for 48 hours. The outside of the shells were washed with soap, and placed in a 70% ethyl alcohol bath for 30 seconds. The eggs were incubated at 37° C. for three days and rotated 180 degrees three times daily. After incubation, the eggs were cleansed with an iodine solution and dried on a sterile tray. The eggs were cracked, and the embryos explanted into spherical plastic 100 mm×25 mm weigh boats. Specimens were covered with a plastic lid, placed in a humidified chamber at 37° C., and maintained for 48 to 72 hours until the CAM achieved at least a 10 mm diameter.
Methylcellulose disks were prepared as reported by Mazo et al. (FASEB J. 13: A527, 1999). […] These doses were selected on the basis of prior animal and culture studies (Zagon I. S. et al., Am. J Physiol, 270: R22-R32 (1996); McLaughlin P. J. et al., Int. J. Oncol., 14: 991-998 (1999)). An equivalent volume of distilled water was utilized as a control (n=13). Another series of experiments employed retinoic acid (RA: 1 μg) (Oikawa T. et al., Cancer Letters, 48: 157-162 (1989)) (n=12), VEGF (1 μg) (Wilting J. et al., Cell Tissue Res., 274: 163-174 (1993)) (n=10) and an equivalent volume of water (n=10) to validate the CAM model employed, and to provide an internal comparison to the potential angiogenic effects of OGF with other known angioactive agents. These methylcellulose solutions were placed on the tips of 3.2 mm diameter Teflon rods and allowed to dry at room temperature for 1 hour under a vacuum hood. The resultant dried disks were removed from the Teflon rods and placed on the outer third of the CAM. Only one disk was placed on each CAM. The eggs were returned to the incubator for an additional 48 hours of growth prior to examination by image analysis (Mazo J. E. et al., FASEB J., 13: A527 (1999)).
Image analysis was preformed as described previously (Mazo J. E. et al., FASEB J, 13: A527 (1999)). The location of the disk was located visually on the CAM. An identifying mark was placed in the center of the disk and 2 ml of a 10% intralipid solution was injected into the CAM obscuring the underlying yolk vessels and providing an opaque white background for the superficial vessels. The CAM was imaged on a three-chip digital camera (DKC 500 Sony, Tokyo, Japan), digitized, and exported to a personal computer (FIG. 1). A 100 mm^2 region was defined around the disk in which blood vessel quantitation was performed (Optimas 6.0, Mediacybernetics, Bothell, Wash.). Calibration was achieved by imaging a ruler placed adjacent to the embryo preparation.
All arteries and veins in this designated region centered on the applied disk were analyzed. From the digitized image, an overlying mask was created and all blood vessels were traced within the region in an unblinded manner by two different individuals. The total number of blood vessels were counted and their individual lengths added to obtain total blood vessel length.
Data were exported to Microsoft Excel (Excel 97, Microsoft, Redmond, Wash.). All values were expressed as the mean±standard error of the mean. Statistical analysis was performed using the SigmaStat 1.0 statistical software package (Jandel, San Rafael, Calif.). The Mann-Whitney rank sum test or the Student t test was used to compare continuous data. Either the Fischer exact test or χ^2 test were used for dichotomous data. A p value of less than 0.05 indicated statistical significance.

[2] = tested on: CAM arteries and veins (angiogenesis); test: CAM assay with separate counting of arteries and veins (Example 2); type: in vivo, chick; conditions: for Number of Vessels, Artery / Number of Vessels, Vein / Total Vessel Length, Artery / Total Vessel Length, Vein / Number of Vessels, A/V Ratio / Total Vessel Length, A/V Ratio: mean ± SEM
Method: The CAM assay described above was utilized. After 3 days of incubation, fertilized chick embryos were explanted and 3.2 mm methylcellulose disk containing a compound was placed onto the CAM surface. After 2 days of growth, the CAM arteries and veins were identified and imaged with a digital camera. Arteries and veins were identified based on the presence of vessel pulsation (arteries), color, and direction of blood flow within the vessels. The main artery was oriented vertically with flow originating inferiorly. A white 10% intralipid solution was injected into the CAM to enhance visualization. Total number and length of veins and arteries were counted and measured.

embryos = test: Embryo survival after placement of drug onto the CAM; type: in vivo, chicken; conditions: 48 hours after placement of drug onto the CAM
Method: as §1
Methylcellulose disks were prepared as reported by Mazo et al. (FASEB J. 13: A527, 1999). […] These doses were selected on the basis of prior animal and culture studies (Zagon I. S. et al., Am. J Physiol, 270: R22-R32 (1996); McLaughlin P. J. et al., Int. J. Oncol., 14: 991-998 (1999)). An equivalent volume of distilled water was utilized as a control (n=13). […]

[3] = 1 μg per disk, another series of experiments

Compound: C=CCN1CC[C@]23c4c5ccc(O)c4O[C@H]2C(=O)CC[C@@]3(O)[C@H]1C5 [NAL, naloxone, reference compound]
- effect on angiogenesis / blood vessel growth vs control [1]: no effect on vessel growth

Compound: O=C1CC[C@@]2(O)[C@H]3Cc4ccc(O)c5c4[C@@]2(CCN3CC2CC2)[C@H]1O5 [Naltrexone, reference compound]
- effect on angiogenesis / blood vessel growth vs control [1]: Vessel inhibition is no longer seen
- effect on total blood vessel length vs control ([1]; 5 μg per disk): increased
- effect on total number of blood vessels vs control ([1]; 5 μg per disk): increased
- effect on mean blood vessel length vs control ([1]; 5 μg per disk, listed as NTX): decreased; also recorded: marked decrease
- Number of Vessels, Artery ([2]; 0.1 μg disk): 80 ± 6
- Number of Vessels, Vein ([2]; 0.1 μg disk): 83 ± 4
- Total Vessel Length, Artery ([2]; 0.1 μg disk): 112 ± 6 mm
- Total Vessel Length, Vein ([2]; 0.1 μg disk): 118 ± 6 mm
- Number of Vessels, Artery ([2]; 5.0 μg disk): 203 ± 7
- Number of Vessels, Vein ([2]; 5.0 μg disk): 97 ± 4
- Total Vessel Length, Artery ([2]; 5.0 μg disk): 174 ± 4 mm
- Total Vessel Length, Vein ([2]; 5.0 μg disk): 105 ± 2 mm
- effect on mean length of blood vessels ([2]; summary of Table II): decreased
- effect on total number and length of blood vessels in comparison to controls ([2]; summary of Table II): markedly increased both total number and length of all blood vessels

Compound: CC1=C(/C=C/C(C)=C/C=C/C(C)=C/C(=O)O)C(C)(C)CCC1 [Retinoic acid, retinoic acid, reference compound]
- decrease in number of blood vessels compared to control group ([1]; 1 μg per disk): 60%
- decrease in total blood vessel length compared to control group ([1]; 1 μg per disk): 33%
- increase in mean blood vessel length relative to control group ([1]; 1 μg per disk): 75%
- Blood Vessel Mean Length [1, 3]: 2.07 ± 0.13 mm
- Blood Vessel Number [1, 3]: 79 ± 10
- Blood Vessel Length [1, 3]: 153 ± 11 mm
- Number of Vessels, A/V Ratio ([2]; dose not given): 1.5 ± 0.1
- Number of Vessels, Artery ([2]; dose not given): 60 ± 5
- Number of Vessels, Vein ([2]; dose not given): 39 ± 3
- Total Vessel Length, A/V Ratio ([2]; dose not given): 1.3 ± 0.1
- Total Vessel Length, Artery ([2]; dose not given): 83 ± 5 mm
- Total Vessel Length, Vein ([2]; dose not given): 66 ± 4 mm

Compound: VEGF
- decrease in mean blood vessel length in comparison to control ([1]; 1 μg per disk): 33%
- effect on blood vessel growth vs control ([1]; 1 μg per disk): excitatory effect on blood vessel growth
- effect on calculated mean vessel length vs control ([1]; 1 μg per disk): decreased
- effect on number of blood vessels vs control ([1]; 1 μg per disk): markedly increased
- effect on total length of blood vessels vs control ([1]; 1 μg per disk): marked increase
- increase in total vessel length in comparison to control ([1]; 1 μg per disk): 22%
- increase in vessel number in comparison to control ([1]; 1 μg per disk): 83%
- Blood Vessel Mean Length [1, 3]: 0.79 ± 0.02 mm
- Blood Vessel Number [1, 3]: 358 ± 16
- Blood Vessel Length [1, 3]: 280 ± 7 mm
- Number of Vessels, A/V Ratio ([2]; 0.2 μg disk): 1.3 ± 0.1
- Number of Vessels, Artery ([2]; 0.2 μg disk): 83 ± 5
- Number of Vessels, Vein ([2]; 0.2 μg disk): 75 ± 11
- Total Vessel Length, A/V Ratio ([2]; 0.2 μg disk): 1.2 ± 0.1
- Total Vessel Length, Artery ([2]; 0.2 μg disk): 117 ± 3 mm
- Total Vessel Length, Vein ([2]; 0.2 μg disk): 109 ± 14 mm
- Number of Vessels, A/V Ratio ([2]; 1.0 μg disk): 2.2 ± 0.2
- Number of Vessels, Artery ([2]; 1.0 μg disk): 248 ± 13
- Number of Vessels, Vein ([2]; 1.0 μg disk): 120 ± 7
- Total Vessel Length, A/V Ratio ([2]; 1.0 μg disk): 1.5 ± 0.2
- Total Vessel Length, Artery ([2]; 1.0 μg disk): 173 ± 8 mm
- Total Vessel Length, Vein ([2]; 1.0 μg disk): 117 ± 5 mm

Compound: [Met^5]-enkephalin [OGF]
- effect on angiogenesis / blood vessel growth vs control [1]: blood vessel growth was suppressed; also recorded: marked inhibitory effect on angiogenesis
- decrease in number of blood vessels in comparison to controls ([1]; 5 μg per disk): 35%
- decrease in total blood vessel length in contrast to control ([1]; 5 μg per disk): 20%
- effect on mean blood vessel length vs control ([1]; 5 μg per disk): significantly increases
- effect on total blood vessel length vs control ([1]; 5 μg per disk): significantly inhibited
- effect on total number of blood vessels vs control ([1]; 5 μg per disk): significantly decreases
- increase in mean blood vessel length from control values ([1]; 5 μg per disk): 23%
- Blood Vessel Number ([1]; 5 μg per disk, 100 mm^2 region around disk): 102 ± 11
- Blood Vessel Mean Length ([1]; 5 μg per disk, 100 mm^2 region): 1.81 ± 0.13 mm
- Blood Vessel Length ([1]; 5 μg per disk, 100 mm^2 region): 179 ± 12 mm
- Number of Vessels, A/V Ratio ([2]; 1.0 μg disk): 1.1 ± 0.2
- Number of Vessels, Artery ([2]; 1.0 μg disk): 53 ± 5
- Number of Vessels, Vein ([2]; 1.0 μg disk): 56 ± 8
- Total Vessel Length, A/V Ratio ([2]; 1.0 μg disk): 1.2 ± 0.2
- Total Vessel Length, Artery ([2]; 1.0 μg disk): 84 ± 5 mm
- Total Vessel Length, Vein ([2]; 1.0 μg disk): 81 ± 11 mm
- Number of Vessels, A/V Ratio ([2]; 5.0 μg disk): 1.6 ± 0.1
- Number of Vessels, Artery ([2]; 5.0 μg disk): 79 ± 4
- Number of Vessels, Vein ([2]; 5.0 μg disk): 51 ± 2
- Total Vessel Length, A/V Ratio ([2]; 5.0 μg disk): 1.3 ± 0.1
- Total Vessel Length, Artery ([2]; 5.0 μg disk): 107 ± 4 mm
- Total Vessel Length, Vein ([2]; 5.0 μg disk): 82 ± 3 mm
- effect on artery/vein ratios for vessel number and length ([2]; summary of Table II): decreased artery/vein ratios
- effect on total number and length of blood vessels in comparison to controls ([2]; summary of Table II): decreased total number and length of blood vessels
- toxicity (embryo survival) (embryos): all embryos survived
